Data taken from US4000262A, “5-Epi-amino and 5-epi-azido-4,6-di-O-(aminoglycosyl)-2,5-dideoxystreptamines 1-N-alkyl-5-epi-amino and 1-N-alkyl-5-epi-azido-4,6-di-O-(aminoglycosyl)-2,5-dideoxystreptamines” (priority 1975, dated 1976).
≈ marks a conversion by molar mass, not a printed value. Where two headings read alike, the source gives them in different places.

Experiments:
[1] = tested on: gram positive bacteria and gram negative bacteria; assay: antibacterial activity (general statements, standard dilution tests); type: cell-based; details: gram negative organisms resistant to the 5-hydroxy precursors
[2] = acute intravenous toxicity; details: mouse, in vivo, male CF-1 mice weighing 20 grams each
[3] = tested on: gram-positive and gram-negative bacteria; assay: in vitro antibacterial spectrum / activity compared with gentamicin C components; type: cell-based; details: as the free base
Streptococcus pyogenes C = assay: in vitro minimal inhibitory concentration, standard tube dilution method; type: cell-based
Description: In Table 1, set forth below is shown the in vitro minimal inhibitory concentration (MIC) of gentamicin C2a against representative gram-positive and gram-negative bacteria. The results are derived using the standard tube dilution method in Mueller-Hinton broth.
In Table 2, set forth below is shown the in vitro minimal inhibitory concentration (MIC) of gentamicin C2b against representative gram-positive and gram-negative bacteria. The results are derived using the standard tube dilution method in Mueller-Hinton broth.

## CNC1C(O)C(OC2C(N)CC(N)C(OC3OC(CN)CCC3N)C2N)OCC1(C)O (stereo not drawn) [5-epi-amino-5-deoxygentamicin C1a]
[1]
  cidal activity: cidal against certain gram negative organisms which are resistant to the 5-hydroxy precursors

## CN[C@@H]1[C@@H](O)[C@@H](O[C@@H]2[C@@H](O)[C@H](O[C@H]3O[C@H]([C@H](C)N)CC[C@H]3N)[C@@H](N)C[C@H]2N)OC[C@]1(C)O [gentamicin C2a]
[2]
  LD50: 110 mg/kg
[3]
  activity relative to the gentamicin "C" complex: about 74%
Streptococcus pyogenes C
  MIC: 7.5 mg/L (≈ 16.2 µM)

## CNC[C@@H]1CC[C@@H](N)[C@@H](O[C@H]2[C@H](O)[C@@H](O[C@H]3OC[C@](C)(O)[C@H](NC)[C@H]3O)[C@H](N)C[C@@H]2N)O1 [gentamicin C2b]
Streptococcus pyogenes C; Mueller-Hinton broth, read-out: MIC
  MIC: 3 mg/L (≈ 6.47 µM)
